Assay results reported in US20220364184A1, “COMPOSITIONS AND METHODS FOR TREATMENT OF A POOR PROGNOSIS SUBTYPE OF COLORECTAL CANCER” (DANA-FARBER CANCER INSTITUTE, INC., priority 2019, published 2022).

B1: Wnt3A: Wnt ligand used to treat RKO cells (protein, UniProt P56704 19-352, looked up)
Protein Wnt-3a: SYPIWWSLAVGPQYSSLGSQPILCASIPGLVPKQLRFCRNYVEIMPSVAEGIKIGIQECQHQFRGRRWNCTTVHDSLAIFGPVLDKATRESAFVHAIASAGVAFAVTRSCAEGTAAICGCSSRHQGSPGKGWKWGGCSEDIEFGGMVSREFADARENRPDARSAMNRHNNEAGRQAIASHMHLKCKCHGLSGSCEVKTCWWSQPDFRAIGDFLKDKYDSASEMVVEKHRESRGWVETLRPRYTYFKVPTERDLVYYEASPNFCEPNPETGSFGTRDRTCNVSSHGIDGCDLLCCGRGHNARAERRREKCRCVFHWCCYVSCQECTRVYDVHTCK

What was measured:
Format in all cases: cell-based, human
BCL9 [1] = assay: Immunofluorescence / FISH of BCL9 localization; settings: RKO cells
Protocol: At various times after the scratch was made, cells were fixed with 4% paraformaldehyde for 15 minutes at room temperature. Immunofluorescence was subsequently used to identify the location of BCL9 (see immunofluorescence method section for more detail).
Cells were cultured on coming Glass Coverslips (354085, BioCoat) contained within the wells of a 24-well plate for 24 hrs, and then fixed using 4% paraformaldehyde. Cells were washed three times with PBS, permeabilized with 0.5% Triton X-100 (Tris-HCl pH=7.6, 150 mM NaCl, 0.5% Triton X-100 (v/v), washing buffer) for 15 minutes at room temperature, and blocked with 5% BSA for 1 hour at room temperature. The cells were incubated overnight at 4 degrees with the following antibodies; anti-BCL9 (ab37305, Abcam®), NONO (TA504777, Origene®), ILF2 (PA5-18718, ThermoFisher®) or β-catenin (610154, BD Transduction Laboratories). The following day, cells were washed 3 times with PBS and incubated with fluorescently tagged anti-mouse (A11029, ThermoFisher®), rabbit (A11035, ThermoFisher®) or goat (A21447, ThermoFisher®) secondary antibodies for 1 hour at room temperature. Cells were washed 3 times with PBS and stained with DAPI (D9542, Millipore-Sigma®) for two mins. Cells were subsequently washed three times with PBS to remove any residual DAPI stain, and then imaged with an SD confocal microscope. The colocalization threshold is calculated by ImageJ2. Dotted staining area of BCL9 was calculated by the following step: confocal images were processed by High Frequency Signaling Removal to filter out the rapidly changing signal. This process removes the noise and non-dotted staining of BCL9. Then, the top 2% signaling areas were selected. High Frequency Signaling Removal and area size was calculated by ImageJ2. NEAT1 and fluorescence probe was purchased from Biosearch Technology (NEAT1, SMF-2036-1). IF combined FISH of BCL9/NEAT1 was performed as recommended by the supplier.

DLD-1 cells = assay: IF and Co-IP of BCL9 with paraspeckle proteins in DLD-1 cells
Protocol: (§1) To extract nuclear protein, cells were incubated with cytoplasmic lysis buffer (50 mM Tris-HCl pH=8.0, 20 mM NaCl, 2 mM EDTA, 0.5% Tween-20 containing protease/phosphatase Inhibitor, #5872, Cell Signaling®) on ice for 10 mins, centrifuged at 6000×g, and the precipitate collected. This step was repeated 3 times to remove at much cytoplasmic protein as possible. Subsequently, nuclear lysis buffer (50 mM Tris-HCl pH=7.4, 150 mM NaCl, 2 mM EDTA, 1% Triton X-100(v/v) containing protease/phosphatase inhibitor) was added to the precipitate, and sonication was used to lyse the sample before centrifugation at 16000×g for 15 minutes at 4 degrees. […] In addition, pulled down protein samples were analyzed by silver staining; bands which existed in anti-BCL9 samples, but not in the anti-normal IgG groups, were cut and used for further MS analysis to validate previous results. […]
Cells were cultured on coming Glass Coverslips (354085, BioCoat) contained within the wells of a 24-well plate for 24 hrs, and then fixed using 4% paraformaldehyde. […] The colocalization threshold is calculated by ImageJ2. Dotted staining area of BCL9 was calculated by the following step: confocal images were processed by High Frequency Signaling Removal to filter out the rapidly changing signal. […]

RKO cells [2] = assay: Live-cell calcium imaging of spontaneous calcium transients (GCaMP5); settings: calcium wave spike library
Protocol: 2 mg/ml neomycin was added to the cell culture medium 48 hrs after transfection to generate cell lines with stable GCaMP5 expression and removed one week prior to the initiation of experiment. Calcium transients were captured by live-cell imaging using a confocal microscope. Time lapse imaging was setup so that an image was captured every 0.5 s for 30 minutes, with an exposure time of 0.5 s. Calcium measurements were normalized to background fluorescence and the relative change in calcium (F(t)) over time was calculated by the formula: […]
where F0 was defined as the average intensity of the 20% lowest grey values in a region of interest (ROI), F was defined as the normalized grey values of ROI in time point t. Global synchronicity was calculated by cross correlation method in FluoroSNNAP (seas.upenn.edu/˜molneuro/fluorosnnap.html).

RKO cells [3] = assay: Cell viability of wild-type and BCL9 knockout RKO cells after Poly I:C
[4] = tested on: RGS4, CACNA2D1, ADRB1 mRNA; assay: mRNA expression by RNA-seq / qRT-PCR; settings: FIG. 3J
Protocol: RNA was extracted from wild type and BCL9 knockout RKO cells with or without Poly I:C treatment (1 μg/ml) and subsequently purified using the TURBO DNA-free™ Kit (AM1907, invitrogen) to remove any residual DNA. An RNA library was prepared using the ribosome RNA removing method and sequenced with a 150 bp paired-end protocol in the Center for Cancer Computational Biology at the Dana Farber Cancer Institute (PRJNA554110). After quality control (QC) analysis was performed using fastQC, the first 10 bases were trimmed for each read. STAR software was used to map the readings to the human genome (hg19) and duplicates were removed using Picard. HTSeq was used to evaluate the gene expression levels by the count number for each gene and were subsequently annotated using the Ensemble database. Gene differential analysis was then applied to the expression profiling table using R package edgeR. For further analysis, the difference in exon usage between different conditions was calculated and R package DEXSeq was used to find differences between them.

BCL9 [5] = assay: Immunoblotting of protein levels; settings: longer exposure, FIG. 3F and 16D
Protocol: Following lysis, cells were incubated on ice for 10 minutes and centrifuged for 10 minutes at 4 degrees at 16000×g.

[6] = tested on: BCL9/β-catenin protein complex; assay: Coimmunoprecipitation of BCL9/β-catenin complex
Protocol: as §1, with “degrees. 1 mg of the nuclear lysate was blocked with 5% BSA for 1 hr at 4 degrees, before overnight incubation with anti-BCL9 (ab37305 Abcam®, 6109 generated in New England Biolabs), NONO (ab70335, Abcam®), SFPQ (ab38148), ILF2 (H00003608-D01, abnova) or β-catenin (9562L, Cell Signaling®) antibodies. Normal rabbit IgG (sc-3888, Santa Cruz®) was used as a negative control. The following day, Protein G and A DynaBeads (10003D, 10002D, ThermoFisher®) were added to the nuclear lysate at a ratio of 1:1 and rotated for an additional 4 hrs.” for “degrees.”

[7] = tested on: BCL9/paraspeckle proteins (NONO, SFPQ, ILF2); assay: Coimmunoprecipitation of BCL9 with paraspeckle proteins; settings: RKO cells, FIG. 16K
Protocol: This step was repeated 3 times to remove at much cytoplasmic protein as possible. Subsequently, nuclear lysis buffer (50 mM Tris-HCl pH=7.4, 150 mM NaCl, 2 mM EDTA, 1% Triton X-100(v/v) containing protease/phosphatase inhibitor) was added to the precipitate, and sonication was used to lyse the sample before centrifugation at 16000×g for 15 minutes at 4 degrees. […] The following day, Protein G and A DynaBeads (10003D, 10002D, ThermoFisher®) were added to the nuclear lysate at a ratio of 1:1 and rotated for an additional 4 hrs. The beads were washed 3 times with washing buffer (50 mM Tris-HCl pH=7.4, 200 mM NaCl, 2 mM EDTA, 1% Triton X-100(v/v)). The beads were then re-suspended with 2×LDS sample buffer and boiled for 10 mins. For Immunoblotting, the sample was electrophoresed using SDS-PAGE, transferred to nitrocellulose membrane and blocked using non-fat 5% milk.

BCL9 binding to paraspeckle proteins [7] | Molecule | partial co-localization between BCL9/IF and NEAT1/FISH signals (BCL9 [1]; FIG. 16I) | accumulation of BCL9 around the nucleus (BCL9 [1]; after 6 hrs, FIG. 16C) | BCL9 accumulation around the nucleolus (BCL9 [1]; longer exposure, FIG. 3F) | location and interaction of BCL9 with paraspeckle proteins (DLD-1 cells) | length and amplitude of calcium transients (RKO cells [2]; BCL9 knockout cells) | length and amplitude of calcium transients (RKO cells [2]; wild-type cells) | growth of cells (RKO cells [3]; BCL9 knockout RKO cells) | growth of cells (RKO cells [3]; wild-type RKO cells) | transcription of the full-length RGS4 mRNA isoform ([4]; BCL9 knockout cells) | expression of RGS4, CACNA2D1 and ADRB1 ([4]; wild-type RKO cells, RNA-seq, Poly I:C 1 μg/ml) | BCL9 and ILF2 protein levels (BCL9 [5]) | amount of BCL9/β-catenin protein complex ([6]; Colo320 cells, FIG. 16J) | interaction between BCL9 and β-catenin ([6]; RKO cells, FIG. 16K)
 | poly I:C | increased | accumulation of BCL9 around the nucleus was observed | induced further BCL9 accumulation around the nucleolus | unresponsive | not | enhanced | not | increased | not rescued | increased | increased | reduced | 
did not affect | B1 |  |  |  |  |  |  |  |  |  |  |  |  | increased
